We go through one compound from patent US10774080B2, “Pyrimidine compound as JAK kinase inhibitor” (THERAVANCE BIOPHARMA R&D IP, LLC, priority 2017, dated 2020).

In assay [1] the test system is IL-2 stimulated STAT5 phosphorylation in Tall-1 human T cell line. Put plainly: Assay 11: inhibition of IL-2 stimulated pSTAT5 in Tall-1 T cells. Type of assay: cell-based. The following applies: read-out: pIC50 for inhibition of IL-2 induced STAT5 phosphorylation (converted). Here is the method:
Assay 11: Inhibition of IL-2 Stimulated pSTAT5 in Tall-1 T Cells
The potency of test compounds for inhibition of interleukin-2 (IL-2) stimulated STAT5 phosphorylation was measured in the Tall-1 human T cell line (DSMZ) using AlphaLisa. Because IL-2 signals through JAK1/3, this assay provides a measure of JAK1/3 cellular potency.
Phosphorylated STAT5 was measured via the AlphaLISA SureFire Ultra pSTAT5 (Tyr694/699) kit (PerkinElmer).
Human T cells from the Tall-1 cell line were cultured in a 37° C., 5% CO2 humidified incubator in RPMI (Life Technologies) supplemented with 15% Heat Inactivated Fetal Bovine Serum (FBS, Life Technologies), 2 mM Glutamax (Life Technologies), 25 mM HEPES (Life Technologies) and 1× Pen/Strep (Life Technologies). […] Phosphorylated STAT5 was measured via the pSTAT5 AlphaLisa kit (PerkinElmer). […] Luminescence was measured with excitation at 689 nm and emission at […] using an EnVision plate reader (PerkinElmer) under green filtered <100 lux light.
To determine the inhibitory potency of test compounds in response to IL-2, the average emission intensity of beads bound to pSTAT5 was measured in a human T cell line. IC50 values were determined from analysis of the inhibition curves of signal intensity versus compound concentration. Data are expressed as pIC50 (negative decadic logarithm IC50) values (mean±standard deviation).

For assay [2], the system named is IL-22 stimulated STAT3 phosphorylation in normal human epidermal keratinocytes. Put plainly: Assay 14: inhibition of IL-22 stimulated pSTAT3 in normal human epidermal keratinocytes. Type of assay: cell-based. The following applies: Keratinocyte, read-out: pIC50 for inhibition of IL-22 induced STAT3 phosphorylation (converted). The method, then: Assay 14: Inhibition of IL-22 Stimulated pSTAT3 in Normal Human Epidermal Keratinocytes
The potency of test compounds for inhibition of interleukin-22 (IL-22) stimulated STAT3 phosphorylation was measured in the normal human epidermal keratinocytes (ATCC) using AlphaLisa. Phosphorylated STAT3 was measured via the AlphaLISA SureFire Ultra pSTAT3 (Tyr705) kit (PerkinElmer).
Primary epidermal keratinocytes were cultured in a 37° C., 5% CO2 humidified incubator in dermal cell basal medium (ATCC) supplemented with keratinocyte growth kit (ATCC) and 1× Pen/Strep (Life Technologies). […]
After cytokine stimulation, cells were lysed with 5 ul of 5× AlphaLisa Lysis Buffer (PerkinElmer) containing 1× PhosStop and Complete tablets (Roche). […] Phosphorylated STAT3 was measured via the pSTAT3 AlphaLisa kit (PerkinElmer). […] Luminescence was measured with excitation at 689 nm and emission at […] using an EnVision plate reader (PerkinElmer) under green filtered <100 lux light.
Luminescence signals were recorded and utilized to calculate the percent inhibition values based on DMSO and controls. For dose-response analysis, percent inhibition data were plotted vs. compound concentrations, and IC50 values were determined from a 4-parameter robust fit model with the Prism software.

With `CCS(=O)(=O)N1[C@@H]2CCC[C@H]1C[C@H](N(C)c1nc(CO)c(F)c(Nc3cc(C)[nH]n3)n1)C2` [Compound (I), (2-(((1R,3s,5S)-9-(ethylsulfonyl)-9-azabicyclo[3.3.1]nonan-3-yl)(methyl)amino)-5-fluoro-6-((5-methyl-1H-pyrazol-3-yl)amino)pyrimidin-4-yl)methanol], the IC50 in assay [1] and in assay [2] was 3.98 nM each time.
